Data published in patent publication US20150346214A1, “DETECTION OF MEMBRANE PROTEINS” (priority 2012, published 2015).

Columns and labels:
[1] = target: E. coli ammonium channel C-terminally fused to green fluorescent protein (AmtB-GFP) (Escherichia coli, UniProt P69681, S65T); details: AmtB-GFP trimer in MS buffer with 2x CMC of the detergent; charge state envelopes modelled with a Gaussian
Description: The activation energy required to achieve resolved peaks of E. coli ammonium channel C-terminally fused to green fluorescent protein (AmtB-GFP) was assessed for a variety of non-ionic detergents.
AmtB-GFP was extracted from purified membranes (described above) with 1-2% (w/v) of the detergent of interest in Buffer B and incubated for one to three hours at room temperature or overnight at 4° C. Insoluble material was pelleted by centrifugation at 20,000 g for 25 minutes at 4° C. The clarified supernatant was loaded onto small Ni-NTA agarose (Qiagen) drip columns (Bio-spin Chromatography columns, Bio-Rad) and washed with several column volumes of Buffer C (200 mM sodium chloride, 20 mM Imidazole, 5 mM BME, 2× CMC detergent of interest, and 50 mM TRIS, pH 8.0 at room temperature). AmtB-GFP was eluted with two column volumes of Buffer D (100 mM sodium chloride, 250 mM Imidazole, 5 mM BME, 2× CMC detergent of interest, and 50 mM TRIS, pH 8.0 at room temperature). Eluted protein was concentrated using a 100 kDa MWCO concentrator and buffer exchanged into MS Buffer (2× CMC detergent of interest and 200 mM Ammonium Acetate, pH 8.0 with Ammonium Hydroxide) using a centrifugal buffer exchange device (Micro Bio-Spin 6, Bio-Rad).
Buffer exchanged protein was analysed on a Q-TOF 2 mass spectrometer (Micromass, Manchester, UK) with a Z-spray source including modifications for protein complexes after introduction of complexes from gold-coated nanoflow capillaries.

[2] = target: T1, mechanosensitive channel of large conductance (MscL) (Mycobacterium tuberculosis, UniProt P9WJN5); assay: Phospholipid binding to MscL resolved by native MS / IM-MS in C8E4; details: optimised P:L:D ratio of Table 2
T1 sequence (P9WJN5 1-151): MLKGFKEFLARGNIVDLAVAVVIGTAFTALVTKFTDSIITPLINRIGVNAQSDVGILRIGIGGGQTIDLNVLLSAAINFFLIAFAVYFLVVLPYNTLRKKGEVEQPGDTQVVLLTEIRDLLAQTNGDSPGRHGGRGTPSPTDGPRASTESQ

[3] = target: ammonia channel (AmtB) (Escherichia coli, UniProt P69681); assay: Phospholipid binding to AmtB resolved by native MS / IM-MS in C8E4; parameters: species or system E. coli; details: AmtB in C8E4; optimised P:L:D ratio of Table 2
[4] = target: T2, Aquaporin Z (AQPZ) (Escherichia coli, UniProt P60844); assay: Phospholipid binding to AQPZ resolved by native MS / IM-MS in C8E4; parameters: species or system E. coli; details: for # Bound (number of resolvable phospholipids bound): AQPZ in C8E4, optimised P:L:D ratio of Table 2
[5] = target: ammonium channel (AmtB) (Escherichia coli, UniProt P69681); assay: Mass spectra and ion mobility MS of AmtB complex in three detergents (Example 2); parameters: species or system E. coli; details: for experimental collisional cross section (CCS) / folded state: AmtB, IM-MS, CIU fingerprints, C8E4 at ELAB <1500; for species in mass spectrum (expected oligomer versus dissociation products): trimeric AmtB, sample cone 10 volts, collision voltage 200 volts
Description: (§1) AmtB-GFP and AQPZ-GFP were extracted from purified membranes in 2% OG in Buffer B and incubated overnight at 4° C. Extracted membrane proteins were clarified by centrifugation at 20,000 g for 25 minutes at 4° C. The clarified supernatant was filtered before loading onto a 5 mL HisTrap-HP column (GE Healthcare, Piscataway, NJ) equilibrated in Buffer E (200 mM sodium chloride, 10% glycerol, 20 mM Imidazole, 0.025% DDM, and 50 mM TRIS, pH 7.4 at room temperature). After the clarified supernatant was loaded, the column was initially washed with 40-50 mL of Buffer E containing 1% OG instead of DDM followed by several column volumes of Buffer E until a steady baseline was reached. Protein was eluted with a linear gradient to 100% in two column volumes of Buffer F (100 mM sodium chloride, 10% glycerol, 500 mM Imidazole, 0.025% DDM, and 50 mM TRIS, pH 7.4 at room temperature). Peak fractions were pooled, supplemented with 5mM BME and His-tagged TEV protease, arid dialyzed against Buffer G (150 mM sodium chloride, 10% glycerol, 20 mM Imidazole, 0.02% DDM, and 50 mM TRIS, pH 7.4 at room temperature) overnight at 4° C. After overnight incubation at 4° C., samples were filtered and passed back over a 5 mL. HisTrap-HP column equilibrated in Buffer E. Flow through containing the untagged membrane protein was collected and concentrated using a 100 kDa MWCO concentrator. Concentrated protein was flash frozen in liquid nitrogen and stored at -80° C.
(§2) Frozen samples were thawed on ice prior to detergent exchange over gel filtration. Samples were injected on a Superdex 200 10/300 (GE Healthcare) equilibrated in Buffer H (130 mM sodium chloride, 10% glycerol, and 50 mM TRIS, pH 7.4 at room temperature) supplemented with 0.5% of C8E4, 0.4% of NG, or 0.02% of DDM. Peak fractions were concentrated using a 100 kDa MWCO concentrator. Concentrated protein was either used directly or flash-frozen in liquid nitrogen and stored at −80° C. Purified membrane proteins were buffer exchanged into MS Buffer (2× CMC detergent of interest and 200 mM Ammonium Acetate, pH 8.0 with Ammonium Hydroxide) using a centrifugal buffer exchange device (Micro Bio-Spin 6, Bio-Rad).
(§3) Buffer exchanged protein was analysed on a quadrupole ion mobility time-of-flight mass spectrometer (Synapt HDMS, Waters Corp.) modified with an 18 cm drift cell with radial RF confinement (RF amplitude 200 V) and a linear voltage gradient along the axis of ion transmission such that collision cross section (CCS) values could be determined directly.
(§4) Mass spectra were acquired with instrument set to 10 volts for sample cone and 200 volts for collision voltage.
(§5) The preservation of native structure is most likely due to the charge reducing behaviour of C8E4, as well as other polyoxyalkylene glycol detergents, which results in a two to five fold reduction in activation energy. In addition, under ELAB values slightly greater than 1500, the CCS value increases consistent with partial unfolding. More importantly, gas-phase unfolding can be observed for these membrane complexes at ELAB values of 1750 to 2250. These gas-phase unfolding transitions can be altered in the presence of a drug molecule that stabilises protein structure, thereby enabling the detection of drug molecules that stabilise protein structure.

[6] = target: T2, Aquaporin Z (AQPZ); assay: Mass spectra and ion mobility MS of AQPZ complex in three detergents (Example 2); parameters: species or system E. coli; details: for experimental collisional cross section (CCS) / folded state: AQPZ, IM-MS, CIU fingerprints, C8E4 at ELAB <1500; for species in mass spectrum (expected oligomer versus dissociation products): tetrameric AQPZ, sample cone 10 volts, collision voltage 200 volts
Description: as §1, §2, §3, §4, §5

T2 sequence (P60844 whole entry): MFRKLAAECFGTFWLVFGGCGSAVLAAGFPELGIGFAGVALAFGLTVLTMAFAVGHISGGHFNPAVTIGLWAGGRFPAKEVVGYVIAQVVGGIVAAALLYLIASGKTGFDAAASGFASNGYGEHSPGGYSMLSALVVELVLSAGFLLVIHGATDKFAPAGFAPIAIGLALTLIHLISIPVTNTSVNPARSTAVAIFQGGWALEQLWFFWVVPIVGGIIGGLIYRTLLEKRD

Row | Compound | Zavg (mean charge state) [1] | # Bound (number of resolvable phospholipids bound) [2] | further results
1 | CCCCCCCCO[C@@H]1O[C@H](CO)[C@@H](O)[C@H](O)[C@H]1O [OG, n-Octyl-β-D-glucopyranoside] | 31.2 | – | –
2 | CCCCCCCC/C=C\CCCCCCCCCC(=O)OC[C@H](COP(=O)([O-])OCC[N+](C)(C)C)OC(=O)CCCCCCCCC/C=C\CCCCCCCC (stereo in doubt) [DIPC, 1,2-dieicosenoyl-sn-glycero-3-phosphocholine (20:1 Cis)] | – | 2 | –
3 | L-α-phosphatidylethanolamine (E. coli) [PE] | – | 1 | # Bound (number of resolvable phospholipids bound) [3]: 2; # Bound (number of resolvable phospholipids bound) [4]: 1
4 | CCCCCCCCCCCCO[C@@H]1O[C@H](CO)[C@@H](O[C@H]2O[C@H](CO)[C@@H](O)[C@H](O)[C@H]2O)[C@H](O)[C@H]1O [DDM, n-Dodecyl-β-D-maltoside] | 30.4 | – | experimental collisional cross section (CCS) / folded state [5]: all unfolded CCS values; species in mass spectrum (expected oligomer versus dissociation products) [5]: mainly dissociation products; experimental collisional cross section (CCS) / folded state [6]: all unfolded CCS values; species in mass spectrum (expected oligomer versus dissociation products) [6]: mainly dissociation products
5 | CCCCCCCC/C=C\CCCCCCCCCCCCCC(=O)OC[C@H](COP(=O)([O-])OCC[N+](C)(C)C)OC(=O)CCCCCCCCCCCCC/C=C\CCCCCCCC (stereo in doubt) [DNPC, 1,2-dinervonoyl-sn-glycero-3-phosphocholine (24:1 Cis)] | – | 2 | –
6 | CCCCCCCCS[C@@H]1O[C@H](CO)[C@@H](O)[C@H](O)[C@H]1O [OTG, n-Octyl-β-D-thioglucopyranoside] | 31.9 | – | –
7 | CCCCCC/C=C\CCCCCCCC(=O)OC[C@H](COP(=O)([O-])OCC[N+](C)(C)C)OC(=O)CCCCCCC/C=C\CCCCCC (stereo in doubt) [DPPC, 1,2-dipalmitoleoyl-sn-glycero-3-phosphocholine (16:1 Cis)] | – | 2 | –
8 | 1-palrnitoyl-2-oleoyl-sn-glycero-3-phosphocholine (16:0-18:1) [PC] | – | 3 | # Bound (number of resolvable phospholipids bound) [3]: 3; # Bound (number of resolvable phospholipids bound) [4]: 3; bound phospholipid molecules ([4]; AQPZ tetramer, mass spectra and ion mobility (FIG. 9)): up to four; bound phospholipid molecules resolved ([4]; AQPZ, collision voltage 130 V (FIG. 6a)): one to six
9 | CCCCCCCCCCCOC1OC(CO)C(OC2OC(CO)C(O)C(O)C2O)C(O)C1O [UDM, n-Undecyl-β-D-maltoside] | 30.3 | – | –
10 | polyethylene glycol tert-octylphenyl ether [TX100] | 21.6 | – | –
11 | OC[C@H]1O[C@H](O[C@H]2[C@H](O)[C@@H](O)[C@H](OCCCCCCC3CCCCC3)O[C@@H]2CO)[C@H](O)[C@@H](O)[C@@H]1O [Cy6, Cymal-6] | 30.5 | – | –
12 | CCCCCCCC/C=C\CCCCCCCC(=O)OC[C@H](COP(=O)([O-])OCC[N+](C)(C)C)OC(=O)CCCCCCC/C=C\CCCCCCCC (stereo in doubt) [DOPC, 1,2-dioleoyl-sn-glycero-3-phosphocholine (18:1 Cis)] | – | 2 | –
13 | CCCCCCCC/C=C\CCCCCCCCCCCC(=O)OC[C@H](COP(=O)([O-])OCC[N+](C)(C)C)OC(=O)CCCCCCCCCCC/C=C\CCCCCCCC (stereo in doubt) [DEPC, 1 ,2-dierucoyl-sn-glycero-3-phosphocholine (22:1 Cis)] | – | 2 | –
14 | polyoxyethylene (8) dodecyl ether [C12E8] | 25.8 | – | –
15 | CCCCCCCCOCCOCCOCCOCCO [C8E4, tetraethylene glycol monooctyl ether] | 21.3 | – | experimental collisional cross section (CCS) / folded state [5]: consistent with calculated CCS values from their respective crystal structure; species in mass spectrum (expected oligomer versus dissociation products) [5]: no observable dissociation products; experimental collisional cross section (CCS) / folded state [6]: consistent with calculated CCS values from their respective crystal structure; species in mass spectrum (expected oligomer versus dissociation products) [6]: no observable dissociation products
16 | OC[C@H]1O[C@H](O[C@H]2[C@H](O)[C@@H](O)[C@H](OCCCCCC3CCCCC3)O[C@@H]2CO)[C@H](O)[C@@H](O)[C@@H]1O [Cy5, Cymal-5] | 31.3 | – | –
17 | polyoxyethylene (20) cetyl ether [C16E20] | 25.0 | – | –
18 | CCCCCCCCCCO[C@@H]1O[C@H](CO)[C@@H](O[C@H]2O[C@H](CO)[C@@H](O)[C@H](O)[C@H]2O)[C@H](O)[C@H]1O [DM, n-Decyl-β-D-maltoside] | 31.4 | – | –
19 | CCCCCCCCCCCCS[C@@H]1O[C@H](CO)[C@@H](O[C@H]2O[C@H](CO)[C@@H](O)[C@H](O)[C@H]2O)[C@H](O)[C@H]1O [DDTM, n-Dodecyl-β-D-thiomaltopyranoside] | 30.0 | – | –
20 | Octyl Glucose Neopentyl Glycol [OGNG] | 27.9 | – | –
21 | CCCCCCCC/C=C\CCCCCCCC(=O)OC[C@H](COP(=O)(O)O[C@H]1C(O)C(O)C(O)[C@@H](OP(=O)(O)O)C1O)OC(=O)CCCCCCC/C=C\CCCCCCCC (some centres unmarked) [PI] | – | 4 | –
22 | CCCC/C=C\CCCCCCCC(=O)OC[C@H](COP(=O)([O-])OCC[N+](C)(C)C)OC(=O)CCCCCCC/C=C\CCCC (stereo in doubt) [DMPC, 1,2-dimyristoleoyl-sn-glycero-3-phosphocholine (14:1 Cis)] | – | 2 | –
23 | CCCCCCCCCO[C@@H]1O[C@H](CO)[C@@H](O)[C@H](O)[C@H]1O [NG, n-Nonyl-β-D-glucopyranoside] | 30.4 | – | experimental collisional cross section (CCS) / folded state [5]: no CCS could be observed indicating native structure; species in mass spectrum (expected oligomer versus dissociation products) [5]: mainly dissociation products; experimental collisional cross section (CCS) / folded state [6]: the complex is unfolded; species in mass spectrum (expected oligomer versus dissociation products) [6]: mainly dissociation products
